What all share (format): functional, cell-based
What all share (conditions): dose 0.1-1 nmol

The test system of one test is 2B4. Description: Induction of NFAT-GFP signal in mouse 2B4 reporter cells expressing mMincle + FcRgamma at 0.1 to 1 nmol incubated for 18 hrs by flow cytometry analysis.
For test [1], the system named is BMDM. Description: Induction of cytokine production in wild type C57BL/6 mouse BMDM cells assessed as IL-1beta secretion at 0.1 to 1 nmol incubated for 24 hrs by ELISA method.
Test [2] has as its system BMDM. As to the kind of experiment: Induction of cytokine production in wild type C57BL/6 mouse BMDM cells assessed as IL-6 secretion at 0.1 to 1 nmol incubated for 24 hrs by ELISA method.
The subject of test [3] is BMDM. Description: Induction of cytokine production in wild type C57BL/6 mouse BMDM cells assessed as IL-10 secretion at 0.1 to 1 nmol incubated for 24 hrs by ELISA method.

Calls of active or inactive are those of the source. The rule behind the calls is not given here.

`CCCCCCCCOc1ccc(-c2cn(C[C@H]3O[C@H](O[C@H]4O[C@H](Cn5cc(-c6ccc(OCCCCCCCC)cc6)nn5)[C@@H](O)[C@H](O)[C@H]4O)[C@H](O)[C@@H](O)[C@@H]3O)nn2)cc1`: the outcome in the test with 2B4 was Active.
Same read-out and setting: the entry for `CCCCCCCCOc1ccccc1-c1cn(C[C@H]2O[C@H](O[C@H]3O[C@H](Cn4cc(-c5ccccc5OCCCCCCCC)nn4)[C@@H](O)[C@H](O)[C@H]3O)[C@H](O)[C@@H](O)[C@@H]2O)nn1` is “Active”.
Regarding `CCCCCCCCOc1cccc(-c2cn(C[C@H]3O[C@H](O[C@H]4O[C@H](Cn5cc(-c6cccc(OCCCCCCCC)c6OCCCCCCCC)nn5)[C@@H](O)[C@H](O)[C@H]4O)[C@H](O)[C@@H](O)[C@@H]3O)nn2)c1OCCCCCCCC`, the result in the test on 2B4, in the test with BMDM [1], with BMDM [2] and in the test on BMDM [3] was Active.
Turning to `CCCCCCCCOc1ccc(-c2cn(C[C@H]3O[C@H](O[C@H]4O[C@H](Cn5cc(-c6ccc(OCCCCCCCC)c(OCCCCCCCC)c6)nn5)[C@@H](O)[C@H](O)[C@H]4O)[C@H](O)[C@@H](O)[C@@H]3O)nn2)cc1OCCCCCCCC`, the outcome in the test with 2B4 was Active. Besides, the outcome in the test on BMDM [1], in the test with BMDM [2] and with BMDM [3] was inactive.
Take `CCCCCCCCOc1cc(OCCCCCCCC)cc(-c2cn(C[C@H]3O[C@H](O[C@H]4O[C@H](Cn5cc(-c6cc(OCCCCCCCC)cc(OCCCCCCCC)c6)nn5)[C@@H](O)[C@H](O)[C@H]4O)[C@H](O)[C@@H](O)[C@@H]3O)nn2)c1`: the result in the test on 2B4, in the test with BMDM [2] and in the test with BMDM [3] was Active. Further, in the test with BMDM [1], the outcome was inactive.
As to `CCCCCCCCOc1ccc(-c2cn(C[C@H]3O[C@H](O[C@H]4O[C@H](Cn5cc(-c6ccc(OCCCCCCCC)cc6OCCCCCCCC)nn5)[C@@H](O)[C@H](O)[C@H]4O)[C@H](O)[C@@H](O)[C@@H]3O)nn2)c(OCCCCCCCC)c1`, the result in the test with 2B4, in the test with BMDM [1], with BMDM [2] and with BMDM [3] was Active.
In the case of `O[C@@H]1[C@@H](O)[C@@H](O[C@H]2O[C@H](Cn3cc(-c4ccccc4)nn3)[C@@H](O)[C@H](O)[C@H]2O)O[C@H](Cn2cc(-c3ccccc3)nn2)[C@H]1O`, the result in the test with 2B4 was inactive.

For the origin of these results see ChEMBL document CHEMBL5537210, “Probing Isosteric Replacement for Immunoadjuvant Design: Bis-Aryl Triazole Trehalolipids are Mincle Agonists” (ACS Med Chem Lett, 2024).
